Assay results reported in PMC11568214, “The impact of 9-azaglycophymine and phenylguanidine derivatives on the proliferation of various breast cancer cell lines in vitro and in vivo” (Scientific Reports, 2024).
Like-named read-outs stand apart in the source and are kept apart here.

Assays:
184B5 = experiment: CV cell viability assay on healthy breast cell line; type: cell-based; settings: Homo sapiens, 72 h
Method: (§1) The cell lines were cultured in standard growth medium consisting of RPMI1640 medium supplemented with 10% (v/v) FCS, 1% (v/v) penicillin/streptomycin and 1% (v/v) glutamine[25]–[29]. Two additional cell lines were included in the study representing non-tumorigenic (“healthy”) breast cells, namely 184B5 and MCF10A. These cell lines were cultured using an Endopan 3 medium kit in accordance with the manufacturer’s instruction. For passaging and seeding, cells were treated as previously described. In brief, seeding was done in low density with 6 × 10^3 cells/100 µL in 96-well plates, and with 1.5 × 10^5 cells/1 mL in 6-well plates. […]
(§2) For initial testing of the cytotoxic effect of the available glycophymine compounds (Table S2), cells were treated with compound in three concentrations: 1, 10 and 50 µM. […] Subsequently, the cell viability was determined by using the crystal violet (CV) assay. […]
(§3) For CV assays, after 72 h treatment, the treatment medium was discarded from the 96-well plates, and the cells were washed using 50 µL of PBS. […] Finally, the absorbance was measured at 570 nm by using a SpectraMax M5 plate reader (Molecular Devices, California, USA) and at 670 nm as background wavelength. […] Based on that, IC50 values and standard deviations were calculated for each replicate individually.

MCF-10A = experiment: as above; type: cell-based; settings: Homo sapiens, 72 h
Method: as §1, §2, §3

[1] = test system: MCF-7, MDA-MB-468, BT-474 and HCC1937 breast cancer cells; experiment: Fast screening / CV cell viability, breast cancer cell line panel; type: cell-based, human; design: reduction of cell viability: concentration or dose not given beside the values
Method: For initial testing of the cytotoxic effect of the available glycophymine compounds (Table S2), cells were treated with compound in three concentrations: 1, 10 and 50 µM. Cells were seeded in 96-well plates and allowed to adhere overnight. Then they were treated for 72 h under standard culture conditions. […] For IC50 determination, the compounds were tested at seven concentrations (0.78, 1.56, 3.13, 6.25, 12.5, 25 and 50 µM). Subsequently, the cell viability was determined by using the crystal violet (CV) assay. Moreover, the selected compounds were tested against the mouse breast cancer cell line 4T1 (TNBC) as well. The compounds were prepared initially to obtain a stock solution of 20 mM in DMSO. Later, the working solutions were prepared by mixing the required amount of DMSO stock with the optimal medium for each cell line. The DMSO concentration in the final solution was always maintained lower than 0.5% to avoid any DMSO-derived side effects.
For CV assays, after 72 h treatment, the treatment medium was discarded from the 96-well plates, and the cells were washed using 50 µL of PBS. Cells were fixed by adding 50 µL of 4% (v/v) paraformaldehyde (PFA) in PBS for 15 min at room temperature (RT). Afterwards, PFA was discarded, and the plates were dried for 15 min at RT. 50 µL of CV working solution (0.1% w/v CV in PBS) were added to the wells, followed by 15 min incubation at RT. Subsequently, the CV solution was discarded, and the plates were washed using aqua bidest. (ddH2O) to remove any remaining CV solution. The plates were left to dry overnight at RT, and then 50 µL of 33% (v/v) acetic acid in ddH2O were added to each well. Finally, the absorbance was measured at 570 nm by using a SpectraMax M5 plate reader (Molecular Devices, California, USA) and at 670 nm as background wavelength. […] Additionally, gefitinib, an approved EGFR inhibitor of the quinazoline family, was tested as anti-proliferative positive control. The data represent the mean ± standard deviation derived from three independent biological replicates. Dose–response curves were generated by four-parametric non-linear regression analysis using the GraphPad Prism software (version: 10.1, San Diego, CA, USA). Based on that, IC50 values and standard deviations were calculated for each replicate individually.

BT-474 = experiment: NO production, DAF-FM staining, flow cytometry; type: cell-based, human; design: key: ↑: induction; ↓: inhibition; ↔: no effect; settings: BT-474, IC50 for 72 h
Method: (§4) Afterwards, the medium was discarded and the cells were stained with DAF-FM (5 µM) in RPMI1640 with 10% (v/v) FCS for 1 h at 37 °C. The stain was completed by additional incubation for 15 min with serum-free medium. The cells were then detached, re-suspended in PBS and analyzed by flow cytometry.

MDA-MB-468 = experiment: NO production, DAF-FM staining, flow cytometry; type: cell-based, human; design: key: ↑: induction; ↓: inhibition; ↔: no effect; settings: MDA-MB-468, IC50 for 72 h
Method: as §4

4T1 [2] = experiment: NO production, DAF-FM staining, flow cytometry; type: cell-based, mouse; design: key: ↑: induction; ↓: inhibition; ↔: no effect; settings: 4T1, IC50 for 72 h
Method: as §4

4T1 [3] = experiment: Autophagy induction, acridine orange staining, flow cytometry; type: cell-based, mouse; design: key: ↑: induction; ↓: inhibition; ↔: no effect; settings: 4T1, IC50 for 72 h
Method: Cells were seeded in 6-well plates and incubated for 24 h under standard culture conditions. […] For the analyses of autophagy induction, the cell suspension was centrifuged for 3 min at 800 rpm, and the cell pellet was stained with 1 mL of AO working solution (1 µg/mL of AO in growth medium). Cells were incubated for 15 min under standard culture conditions. The cell suspension was centrifuged for 3 min at 800 rpm, and the cell pellet was washed with 1 mL of fresh PBS. Finally, all samples were analyzed by using flow cytometry (FACSAria III, BD Biosciences, New Jersey, USA).

4T1 [4] = experiment: Pan-caspase activation, ApoStat staining, flow cytometry; type: cell-based, mouse; design: key: ↑: induction; ↓: inhibition; ↔: no effect; settings: 4T1, IC50 for 72 h
Method: Cells were seeded in 6-well plates and incubated for 24 h under standard culture conditions. […] For the analyses of pan-caspase activation, the cell suspension was centrifuged for 3 min at 800 rpm, and the cell pellet was stained with 100 µL of ApoStat working solution (1 µL of ApoStat and 5% (v/v) FCS in 100 µL of PBS). Cells were incubated for 30 min under standard culture conditions. The cell suspension was centrifuged for 3 min at 800 rpm, and the cell pellet was washed with 1 mL of fresh PBS. Finally, all samples were analyzed by using flow cytometry (FACSAria III, BD Biosciences, New Jersey, USA).

[5] = Monitoring of systemic toxicity in the 4T1 in vivo study (body mass, behavior, fur, food intake); design: species or system BALB/c mice; settings: 5 and 20 mg/kg i.p.
Method: On day 6, the mice were assigned to the study groups using a stratified randomization approach, ensuring that the mean tumor volumes were as similar as possible across all groups. The control group was treated with 400 µL of vehicle solution, the low dose compound 19 group with 5 mg/kg in 400 µL of vehicle, and the high dose group with […] in 400 µL of vehicle. The vehicle was 4% (v/v) DMSO in PBS, and the administration route was intraperitoneal (i.p.). The animals were treated daily on days 6–10 (starting from the day when tumors became palpable), 13–17 and day 20. Animals were visually examined daily, and urine samples were collected on the first and last day of treatment and analyzed by Multistix urine test stripes (Siemens Healthineers, Erlangen, Germany). On day 21 of the experiment, the mice were sacrificed using cervical dislocation. Following the sacrifice, the tumor diameters were measured using a caliper. The tumor volume (V) was then calculated using the formula V = L*W^2*0.52[36], where L represents the longest diameter and W the shortest diameter of the tumor.

## O=c1[nH]c(Nc2ccc([N+](=O)[O-])cc2)nc2ccccc12 [Compound 19, 4′-nitro-9-aza-glycophymine]
184B5
  IC50: ~4 µM
MCF-10A
  IC50: ~4 µM
[1]; 72 h, CV assay, across cell lines, read-out: IC50 values against the breast cancer cell lines
  IC50: 4 to 6 µM
[1]; 72 h, initial screening
  concentration below which active in cytotoxicity screening: below 10 µM
[1]; 72 h, screening at 1, 10 and 50 µM
  anti-proliferative / cytotoxic effect: significantly reduced cell proliferation
[1]; Homo sapiens, 72 h, CV assay, across cell lines, read-out: IC50 values against the breast cancer cell lines
  IC50: ~4 µM
[1]; Homo sapiens, 72 h, read-out: IC50 values (National Cancer Institute guideline criterion)
  IC50: < 30 µg/mL
[1]; after 72 h of treatment, initial screening
  reduction of cell viability: ≥ 50%
BT-474
  NO: ↑
MDA-MB-468
  NO: ↔
4T1 [2]
  NO: ↑
4T1 [3]
  Autophagy: ↔
4T1 [4]
  Pan-caspases: ↑
[5]
  acute systemic toxicity (body mass, behavioral changes, fur color and loss, food intake): absence of acute systemic toxicity
